The target of assay [1] is Proto-oncogene tyrosine-protein kinase Src (Homo sapiens, UniProt P12931). Kind of assay: Inhibition of recombinant human His-tagged full length SRC expressed in baculovirus expression system using tyrosine-2 peptide as substrate incubated for 1 hr by Z'-LYTE assay.
Assay [2] deals with Fibroblast growth factor receptor 1 (Homo sapiens, UniProt P11362). Briefly: Inhibition of recombinant human His-tagged FGFR1 (308 to 731 residues) expressed in baculovirus expression system using tyrosine-4 peptide as substrate incubated for 1 hr by Z'-LYTE assay.
Assay [3] concerns the target T1, Mitogen-activated protein kinase kinase kinase 7 (Homo sapiens, UniProt O43318).
T1 sequence (O43318 whole entry): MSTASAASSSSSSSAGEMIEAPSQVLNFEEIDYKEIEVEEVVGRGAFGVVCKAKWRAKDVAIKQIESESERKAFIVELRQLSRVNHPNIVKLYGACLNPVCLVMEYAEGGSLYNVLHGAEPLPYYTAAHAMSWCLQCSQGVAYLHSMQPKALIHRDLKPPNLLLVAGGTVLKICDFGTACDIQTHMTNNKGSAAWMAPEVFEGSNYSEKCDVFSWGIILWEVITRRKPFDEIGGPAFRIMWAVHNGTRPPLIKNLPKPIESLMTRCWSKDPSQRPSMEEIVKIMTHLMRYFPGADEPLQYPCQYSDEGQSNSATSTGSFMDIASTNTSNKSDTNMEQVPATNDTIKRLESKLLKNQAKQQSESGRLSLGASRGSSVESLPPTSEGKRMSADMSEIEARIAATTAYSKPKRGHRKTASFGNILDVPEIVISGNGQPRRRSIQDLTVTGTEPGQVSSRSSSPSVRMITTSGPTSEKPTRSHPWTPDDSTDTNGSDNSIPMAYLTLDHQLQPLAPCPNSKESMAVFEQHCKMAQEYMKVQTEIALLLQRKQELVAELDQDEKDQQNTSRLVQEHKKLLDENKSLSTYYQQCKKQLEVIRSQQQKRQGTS
Briefly: Inhibition of tracer 222 binding to recombinant human His-tagged TAK1 (437 to 504 residues) expressed in baculovirus expression system […] incubated for 60 mins by Lanthascreen assay. A general note: TR-FRET usually uses a lanthanide donor and a delayed reading to cut background.

Experimental findings from ChEMBL document CHEMBL4354843, “Structure-Based Design of a Potent and Selective Covalent Inhibitor for SRC Kinase That Targets a P-Loop Cysteine” (J Med Chem, 2020) are described below.

pIC50: −log10 of the molar value. A value given as a limit tells only on which side of the number the result lay.

Chain of Proto-oncogene tyrosine-protein kinase Src (P12931 2-536 limits assumed): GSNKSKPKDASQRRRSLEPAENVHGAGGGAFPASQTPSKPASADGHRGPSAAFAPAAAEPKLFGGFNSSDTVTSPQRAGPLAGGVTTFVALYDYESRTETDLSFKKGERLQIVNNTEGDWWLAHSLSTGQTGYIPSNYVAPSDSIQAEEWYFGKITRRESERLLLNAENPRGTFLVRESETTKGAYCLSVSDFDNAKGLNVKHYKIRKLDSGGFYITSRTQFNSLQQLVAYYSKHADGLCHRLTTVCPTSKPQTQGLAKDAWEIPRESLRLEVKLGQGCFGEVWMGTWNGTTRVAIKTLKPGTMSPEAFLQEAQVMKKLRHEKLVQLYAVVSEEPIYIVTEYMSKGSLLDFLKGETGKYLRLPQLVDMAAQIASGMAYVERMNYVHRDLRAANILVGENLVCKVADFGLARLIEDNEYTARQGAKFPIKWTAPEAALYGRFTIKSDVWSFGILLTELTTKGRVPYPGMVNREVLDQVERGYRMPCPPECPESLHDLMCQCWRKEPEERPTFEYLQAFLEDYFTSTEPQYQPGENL
Chain of Fibroblast growth factor receptor 1 (P11362 whole entry, the tested form may be a part): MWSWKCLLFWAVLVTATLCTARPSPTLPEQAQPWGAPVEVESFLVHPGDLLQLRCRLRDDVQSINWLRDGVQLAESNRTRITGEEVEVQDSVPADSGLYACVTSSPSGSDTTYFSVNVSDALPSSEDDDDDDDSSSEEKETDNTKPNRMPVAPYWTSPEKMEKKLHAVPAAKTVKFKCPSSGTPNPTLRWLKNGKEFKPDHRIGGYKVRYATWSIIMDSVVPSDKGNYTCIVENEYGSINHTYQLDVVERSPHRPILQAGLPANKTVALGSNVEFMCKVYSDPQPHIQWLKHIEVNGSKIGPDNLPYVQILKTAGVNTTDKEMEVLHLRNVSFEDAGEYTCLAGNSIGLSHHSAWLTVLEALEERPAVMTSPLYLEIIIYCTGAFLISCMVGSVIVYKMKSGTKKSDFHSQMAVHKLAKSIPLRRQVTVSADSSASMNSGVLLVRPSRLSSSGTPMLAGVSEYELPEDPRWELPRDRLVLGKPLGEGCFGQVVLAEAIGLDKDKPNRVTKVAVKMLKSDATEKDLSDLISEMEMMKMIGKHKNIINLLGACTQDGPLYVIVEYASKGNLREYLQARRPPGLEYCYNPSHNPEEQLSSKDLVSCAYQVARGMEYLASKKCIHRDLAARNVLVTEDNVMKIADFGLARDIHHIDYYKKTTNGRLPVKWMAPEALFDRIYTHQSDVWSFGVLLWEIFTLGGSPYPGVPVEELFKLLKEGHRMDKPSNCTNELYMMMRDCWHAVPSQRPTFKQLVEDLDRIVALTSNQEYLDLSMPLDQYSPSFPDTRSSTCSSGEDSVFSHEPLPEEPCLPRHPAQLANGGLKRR

In general, pIC50 refers to the IC50 on a negative log10 scale, so that one unit is a factor of ten. In the case of `C=CC(=O)Nc1ccccc1Nc1nc(Nc2ccc(N3CCN(C)CC3)cc2)ncc1-c1ccc(C(C)=O)cc1`, the values for the pIC50 in assay [1], in assay [2] and in assay [3] were 8.22, 7.14 and 5.83, respectively.
Turning to `C=CC(=O)Nc1ccccc1Nc1nc(Nc2ccc(N3CCN(C)CC3)cc2)ncc1-c1ccoc1`, the pIC50 in assay [1] is 8.70; in assay [2] it was 7.92; in assay [3], 6.65.
Turning to `C=CC(=O)Nc1ccccc1Nc1nc(Nc2ccc(N3CCN(C)CC3)cc2)ncc1C(=O)Nc1c(C)cc(Cl)cc1Cl`, the pIC50 in assay [2] is below 5.00.
In the case of `C=CC(=O)Nc1ccccc1Nc1nc(Nc2ccc(N3CCN(C)CC3)cc2)ncc1OCc1ccc(C)cc1`, the pIC50 in assay [1] was 8.30; in assay [2], 6.92.
With `C=CC(=O)Nc1ccccc1Nc1nc(Nc2ccc(N3CCN(C)CC3)cc2)ncc1-c1cccs1`, the pIC50 in assay [1] is 8.52; in assay [2] it was 7.77; in assay [3], 6.27.
As for `C=CC(=O)Nc1ccccc1Nc1nc(Nc2ccc(N3CCN(C)CC3)cc2)ncc1C(=O)Nc1ccc(Oc2ccccc2)cc1`, the pIC50 was below 5.48 in assay [1] and below 5.00 in assay [2].
Consider `C=CC(=O)Nc1ccccc1Nc1nc(Nc2ccc(N3CCN(C)CC3)cc2)ncc1Cl`, for which the pIC50 in assay [1] is 8.40; in assay [2], 7.27.
Regarding `C=CC(=O)Nc1ccccc1Nc1nc(Nc2ccc(N3CCN(C)CC3)cc2)ncc1-c1ccc(OC)nc1`, the pIC50 in assay [1] was 8.22; in assay [2], 7.70; in assay [3], 5.72.
Take `C=CC(=O)Nc1ccccc1Nc1nc(Nc2ccc(N3CCC(N4CCN(C)CC4)CC3)cc2)ncc1C(=O)Nc1c(C)cccc1Cl`: the pIC50 in assay [1] is below 5.00.
Take `C=CC(=O)Nc1ccccc1Nc1nc(Nc2ccc(N3CCN(C)CC3)cc2)ncc1C(=O)Nc1c(Cl)c(OC)cc(OC)c1Cl`: the pIC50 in assay [2] is 6.41.
For `C=CC(=O)Nc1ccccc1Nc1nc(Nc2ccc(N3CCN(C)CC3)cc2)ncc1C(=O)Nc1c(C)cc(C#N)cc1Cl`, in assay [2], the pIC50 was below 5.00.
`C=CC(=O)Nc1ccccc1Nc1nc(Nc2ccc(N3CCN(C)CC3)cc2)ncc1C(=O)Nc1ccccc1CC`: the pIC50 in assay [2] is below 5.00.
`C=CC(=O)Nc1ccccc1Nc1nc(Nc2ccc(N3CCN(C)CC3)cc2)ncc1C(=O)Nc1c(C)cc(C)cc1Cl`: in assay [2], the pIC50 was below 5.48.
As for `C=CC(=O)Nc1ccccc1Nc1nc(Nc2ccc(N3CCN(C)CC3)cc2)ncc1OCc1ccc(Oc2ccccc2)cc1`, the pIC50 was 8.22 in assay [1] and 5.98 in assay [2].
Regarding `C=CC(=O)Nc1ccccc1Nc1nc(Nc2ccc(N3CCN(C)CC3)cc2)ncc1OCc1c(C)cccc1Cl`, the pIC50 in assay [1] is 8.52; in assay [2], 6.43.
For the molecule `C=CC(=O)Nc1ccccc1Nc1nc(Nc2ccc(N3CCN(C)CC3)cc2)ncc1C(=O)Nc1cc(OC)c(OC)cc1C`, the pIC50 in assay [2] was 5.17.
`C=CC(=O)Nc1ccccc1Nc1nc(Nc2ccc(N3CCN(C)CC3)cc2)ncc1C(=O)Nc1cc(C)cc(Cl)c1`: the pIC50 in assay [2] is below 5.00.
For the molecule `C=CC(=O)Nc1ccccc1Nc1nc(Nc2ccc(N3CCN(C)CC3)cc2)ncc1-c1ccc(Oc2ccccc2)cc1`, the results for the pIC50 in assay [1], in assay [2] and in assay [3] were 8.30, 7.05 and 5.26, respectively.
